Results reported in patent publication US8959984B2, “Proteome-wide quantification of small molecule binding to cellular target proteins” (priority 2007, dated 2015).
Where “and” joins values, the source holds several entries; their conditions need not be identical. Equal entries are not always repeated.

How the values were obtained:
Assay in all cases: binding to AX14596 beads (HeLa lysate, SILAC MS)
ACAD10 = molecular target: T1, ACAD10 (Homo sapiens, UniProt Q6JQN1)
T1 sequence (Q6JQN1 1-1059): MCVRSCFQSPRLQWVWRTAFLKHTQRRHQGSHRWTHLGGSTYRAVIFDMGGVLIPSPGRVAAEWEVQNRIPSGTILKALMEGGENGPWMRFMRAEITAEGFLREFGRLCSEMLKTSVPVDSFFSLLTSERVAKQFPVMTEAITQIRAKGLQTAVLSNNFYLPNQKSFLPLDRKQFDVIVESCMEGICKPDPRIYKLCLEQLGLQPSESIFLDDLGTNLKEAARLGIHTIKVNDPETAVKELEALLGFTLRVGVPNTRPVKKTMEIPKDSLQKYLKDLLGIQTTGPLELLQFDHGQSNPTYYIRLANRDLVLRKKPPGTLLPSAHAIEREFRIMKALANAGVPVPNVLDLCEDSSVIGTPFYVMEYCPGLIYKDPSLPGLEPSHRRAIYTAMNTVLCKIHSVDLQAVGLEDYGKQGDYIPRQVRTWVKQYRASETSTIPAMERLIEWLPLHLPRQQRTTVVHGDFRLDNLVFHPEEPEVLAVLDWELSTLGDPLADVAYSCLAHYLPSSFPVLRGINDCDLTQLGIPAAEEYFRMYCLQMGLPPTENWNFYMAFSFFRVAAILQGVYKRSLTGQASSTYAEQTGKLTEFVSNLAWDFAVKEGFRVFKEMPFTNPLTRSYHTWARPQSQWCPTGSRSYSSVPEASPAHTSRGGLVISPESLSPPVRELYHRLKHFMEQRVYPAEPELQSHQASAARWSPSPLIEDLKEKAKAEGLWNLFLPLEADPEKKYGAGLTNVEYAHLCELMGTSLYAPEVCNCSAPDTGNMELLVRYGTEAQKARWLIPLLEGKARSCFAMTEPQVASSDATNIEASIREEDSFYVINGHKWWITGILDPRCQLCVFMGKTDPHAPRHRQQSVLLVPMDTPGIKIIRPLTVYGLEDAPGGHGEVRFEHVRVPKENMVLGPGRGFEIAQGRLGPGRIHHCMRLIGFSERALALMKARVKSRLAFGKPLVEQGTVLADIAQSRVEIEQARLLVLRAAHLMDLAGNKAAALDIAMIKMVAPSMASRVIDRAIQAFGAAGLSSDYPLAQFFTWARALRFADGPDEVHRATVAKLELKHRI
Procedure: (§1) Differentially SILAC-encoded cell lysates were either incubated with the inhibitor beads displaying immobilized AX14596 or control resin devoid of ligand. In parallel, the supernatant from the first binding step was subjected to a second incubation with the AX14596 resin (FIG. 4). The resulting three elution fractions were combined, resolved by gel electrophoresis, proteolytically digested and the relative abundance of the retained proteins quantified. Proteins showing considerable binding to the control resin were identified as non-specific interactors and therefore not considered further. […] These target-specific ratios were similar in “label switch” experiments (FIGS. 6a and 6c). The binding equilibrium was determined in parallel control SILAC experiments as well as the excess of the immobilized compound over its cellular targets, the excess preferably being a molar excess (FIG. 7 and FIG. 8).
(§2) Cysteine carbamidomethylation was set as a fixed modification and N-acetyl protein and oxidized methionine were allowed as variable modifications. Spectra that were determined to result from heavy labeled peptides in the pre-search detection of SILAC partners by MaxQuant were searched with the fixed modifications Lys^4, Lys^8, Arg^6 and Arg^10, whereas MS/MS spectra for which no SILAC state could be assigned before database searching were searched with Lys^4, Lys^8, Arg^6 and Arg^10 as variable modifications. The mass tolerance was set to 5 ppm for monoisotopic precursor ions and to 0.5 Da for MS/MS peaks. The minimum peptide length was set to 6 amino acids and up to three missed cleavages and three isotopically labeled amino acids were permitted per peptide. The accepted false discovery rate (FDR) was 1% for the proteins and peptides. The cut-off for the posterior error probability (PEP) of peptides was set to 10%. Peptide PEPs were determined by generating Mascot score and peptide-length-dependent histograms for both the forward and the reverse hits and then deriving the probability of a false identification for a given top-scoring peptide using Bayes' theorem. The PEPs of peptides belonging to the same proteins were then multiplied. Each peptide sequence was considered only once with the lowest PEP determined in case of multiple sequencing of the same isotopic pattern or of peptide species with different SILAC, charge or modification states. Proteins were then sorted according to their products of their peptide PEPs and included until a FDR of 1% was reached according to the fraction of reverse proteins contained in the protein list. In addition to the FDR threshold applied for protein identification, proteins were only included when they were identified with at least two peptides (of which one was required to be unique for the protein) and quantified if at least on quantifiable SILAC pair was associated with them. Outliers were not removed as protein ratios were calculated as the median instead of the average of all peptide ratios. For peptides shared among different identified proteins, SILAC ratios were only considered for the ratio of the protein identified with the highest number of unique peptides. Protein ratios for the different in vitro association experiments were corrected for the initial SILAC pooling ratio, which was determined from the median of protein ratios in pooled SILAC-encoded cell extracts.

CaMK2g (CAMK2G) = CaMK2g (CAMK2G) (Homo sapiens, UniProt Q13555)
Procedure: as §1, §2

EphB4 = EphB4 (Homo sapiens, UniProt P54760)
Procedure: as §1, §2

RIPK2 = RIPK2 (Homo sapiens, UniProt O43353)
Procedure: as §1, §2

[1] = molecular target: p38a (MAPK14, IPI00221141) (Homo sapiens, UniProt Q16539)
Procedure: as §1, §2

RIPK2, sequence (O43353 whole entry): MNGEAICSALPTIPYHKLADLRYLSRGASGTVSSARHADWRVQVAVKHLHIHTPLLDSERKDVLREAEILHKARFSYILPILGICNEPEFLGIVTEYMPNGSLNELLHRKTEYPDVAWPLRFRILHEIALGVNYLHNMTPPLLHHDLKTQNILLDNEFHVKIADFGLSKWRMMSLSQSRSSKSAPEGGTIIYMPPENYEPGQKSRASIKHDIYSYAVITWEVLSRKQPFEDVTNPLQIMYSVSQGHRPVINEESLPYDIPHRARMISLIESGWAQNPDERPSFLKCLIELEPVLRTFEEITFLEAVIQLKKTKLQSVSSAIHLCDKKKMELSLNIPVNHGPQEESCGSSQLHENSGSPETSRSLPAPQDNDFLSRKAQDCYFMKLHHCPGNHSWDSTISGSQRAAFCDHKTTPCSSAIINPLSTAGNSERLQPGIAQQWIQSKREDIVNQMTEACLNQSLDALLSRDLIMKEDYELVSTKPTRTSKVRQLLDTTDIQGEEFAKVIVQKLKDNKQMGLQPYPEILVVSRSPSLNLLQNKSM
EphB4, sequence (P54760 16-987): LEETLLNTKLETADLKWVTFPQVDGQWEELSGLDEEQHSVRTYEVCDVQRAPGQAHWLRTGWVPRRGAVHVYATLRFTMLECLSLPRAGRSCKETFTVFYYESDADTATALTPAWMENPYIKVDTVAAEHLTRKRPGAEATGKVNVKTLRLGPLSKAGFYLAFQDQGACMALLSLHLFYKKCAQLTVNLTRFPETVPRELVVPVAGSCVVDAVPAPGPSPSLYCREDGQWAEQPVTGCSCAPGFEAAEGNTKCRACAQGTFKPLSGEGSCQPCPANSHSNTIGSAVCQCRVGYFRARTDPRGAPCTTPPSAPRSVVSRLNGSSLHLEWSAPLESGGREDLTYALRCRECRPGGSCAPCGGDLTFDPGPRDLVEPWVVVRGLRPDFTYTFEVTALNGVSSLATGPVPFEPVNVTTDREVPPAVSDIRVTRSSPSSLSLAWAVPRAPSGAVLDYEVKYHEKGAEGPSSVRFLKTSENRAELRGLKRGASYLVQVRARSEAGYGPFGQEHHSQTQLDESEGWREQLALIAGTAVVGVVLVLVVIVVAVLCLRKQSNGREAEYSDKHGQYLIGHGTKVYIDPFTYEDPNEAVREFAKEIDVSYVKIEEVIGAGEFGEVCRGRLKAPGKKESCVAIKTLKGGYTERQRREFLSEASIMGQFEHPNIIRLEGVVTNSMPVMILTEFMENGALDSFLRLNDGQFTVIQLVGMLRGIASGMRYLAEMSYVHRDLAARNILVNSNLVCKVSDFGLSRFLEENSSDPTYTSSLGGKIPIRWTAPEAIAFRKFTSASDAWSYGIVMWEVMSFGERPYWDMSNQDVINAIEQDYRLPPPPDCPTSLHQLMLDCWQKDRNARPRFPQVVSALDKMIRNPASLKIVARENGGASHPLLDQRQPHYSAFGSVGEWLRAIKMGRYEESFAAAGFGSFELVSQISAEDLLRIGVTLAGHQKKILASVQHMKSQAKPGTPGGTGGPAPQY
CaMK2g (CAMK2G), sequence (Q13555 whole entry): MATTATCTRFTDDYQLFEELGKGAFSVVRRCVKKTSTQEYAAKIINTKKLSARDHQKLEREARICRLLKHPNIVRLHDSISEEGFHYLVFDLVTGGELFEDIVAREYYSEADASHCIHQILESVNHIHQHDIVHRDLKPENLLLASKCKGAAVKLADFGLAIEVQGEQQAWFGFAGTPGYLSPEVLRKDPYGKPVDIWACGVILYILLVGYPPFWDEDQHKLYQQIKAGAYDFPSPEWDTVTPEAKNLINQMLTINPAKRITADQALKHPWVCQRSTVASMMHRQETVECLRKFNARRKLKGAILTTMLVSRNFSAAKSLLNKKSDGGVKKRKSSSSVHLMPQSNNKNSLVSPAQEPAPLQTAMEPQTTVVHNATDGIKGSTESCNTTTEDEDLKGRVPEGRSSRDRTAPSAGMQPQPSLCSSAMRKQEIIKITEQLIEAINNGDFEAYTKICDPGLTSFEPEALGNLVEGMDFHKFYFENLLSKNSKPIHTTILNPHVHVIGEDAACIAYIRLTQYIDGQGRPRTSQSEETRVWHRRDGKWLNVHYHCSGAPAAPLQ
p38a (MAPK14, IPI00221141), sequence (Q16539 1-360 isoform Q16539-2): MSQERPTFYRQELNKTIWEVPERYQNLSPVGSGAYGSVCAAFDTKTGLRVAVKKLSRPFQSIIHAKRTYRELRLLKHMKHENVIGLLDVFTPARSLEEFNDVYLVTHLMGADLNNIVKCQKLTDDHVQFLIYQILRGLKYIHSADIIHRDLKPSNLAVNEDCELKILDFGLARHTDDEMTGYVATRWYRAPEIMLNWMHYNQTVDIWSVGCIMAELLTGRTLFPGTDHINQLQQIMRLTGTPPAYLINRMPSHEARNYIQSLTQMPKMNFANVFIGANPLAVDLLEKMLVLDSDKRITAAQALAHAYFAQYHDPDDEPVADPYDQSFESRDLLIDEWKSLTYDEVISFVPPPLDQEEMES

## COc1cc2ncnc(Nc3ccc(F)c(Cl)c3)c2cc1OCCCN [AX14596]
ACAD10
  Ki: 108 µM
  r (3 mg/1 mg lysate): 8.45
  r (5 h/2.5 h inc. time): 0.48
  rAVERAGE (2. inc/1. inc): 0.52
  rAVERAGE (control/1. inc): 0.08
CaMK2g (CAMK2G)
  Ki: 93.4 µM
  r (3 mg/1 mg lysate): 2.45
  r (5 h/2.5 h inc. time): 1.17
  rAVERAGE (2. inc/1. inc): 0.48
  rAVERAGE (control/1. inc): 0.04
EphB4
  Ki: 242 µM
  r (3 mg/1 mg lysate): 2.65
  r (5 h/2.5 h inc. time): 0.96
  rAVERAGE (2. inc/1. inc): 0.71
  rAVERAGE (control/1. inc): 0.05
EphB4; bound to AX14596 beads
  % BOUND: 29%
RIPK2
  Ki: 6.2 µM and 6.19 µM
  r (3 mg/1 mg lysate): 2.68
  r (5 h/2.5 h inc. time): 0.90
  rAVERAGE (2. inc/1. inc): 0.06
  rAVERAGE (control/1. inc): 0.02
RIPK2; bound to AX14596 beads
  % BOUND: 94%
[1]
  Ki: 168 µM
  r (3 mg/1 mg lysate): 2.87
  rAVERAGE (2. inc/1. inc): 0.63
  rAVERAGE (control/1. inc): 0.03
